Assay results reported in US12723063B2, “GIPR-agonist compounds” (Eli Lilly and Company, priority 2019, dated 2026).
*1 amine or outer side, *2 acyl side, *3 side chain or, on linkers, in order; H or OH if unused. Where a SMILES comes first, the peptide text is derived from it. Side-chain parts run from the residue outwards. [ ]: non-standard residue; d: D form. The star is where a group is joined. C20 diacid = O=C(O)CCCCCCCCCCCCCCCCCCC(=O)*; C18 diacid = O=C(O)CCCCCCCCCCCCCCCCC(=O)*; γGlu = O=C(O)[C@H](CCC(=O)[*:2])N[*:1]; 4Pal = N[C@@H](Cc1ccncc1)C(=O)O; αMeL = CC(C)C[C@](C)(N)C(=O)O; Orn = NCCC[C@H](N)C(=O)O; AEEA = NCCOCCOCC(=O)O; Aib = CC(C)(N)C(=O)O

Key:
Test in all cases: cAMP functional assay (HTRF) in HEK293 cells in presence of 0.1% casein
Type in all cases: cell-based
[1] = target: T1, human GLP-1 receptor (GLP-1R) (Homo sapiens, UniProt P43220); conditions: HEK293 cells expressing human GLP-1R, geometric mean, read-out: hGLP1R cAMP Rel EC50 nM (SEM, n)
T1 construct: expressed in transfected cells; host or cells: HEK293
T1 sequence (P43220 24-463): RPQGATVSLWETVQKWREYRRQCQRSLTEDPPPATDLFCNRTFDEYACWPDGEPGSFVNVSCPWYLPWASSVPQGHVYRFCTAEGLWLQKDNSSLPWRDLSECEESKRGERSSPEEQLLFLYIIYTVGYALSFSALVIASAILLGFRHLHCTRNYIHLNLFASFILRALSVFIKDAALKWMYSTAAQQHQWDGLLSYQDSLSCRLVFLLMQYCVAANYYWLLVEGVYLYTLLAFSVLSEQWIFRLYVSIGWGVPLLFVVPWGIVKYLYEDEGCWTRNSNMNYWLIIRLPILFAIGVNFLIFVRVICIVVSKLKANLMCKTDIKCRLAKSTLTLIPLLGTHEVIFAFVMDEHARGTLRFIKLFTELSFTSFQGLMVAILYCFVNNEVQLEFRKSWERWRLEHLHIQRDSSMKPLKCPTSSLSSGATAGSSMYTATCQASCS

[2] = target: T2, human glucose-dependent insulinotropic peptide receptor (GIPR) (Homo sapiens, UniProt P48546); conditions: HEK293 cells expressing human GIPR, geometric mean, read-out: hGIPR cAMP Rel EC50 nM (SEM, n)
T2 construct: expressed in transfected cells; host or cells: HEK293
T2 sequence (P48546 22-466): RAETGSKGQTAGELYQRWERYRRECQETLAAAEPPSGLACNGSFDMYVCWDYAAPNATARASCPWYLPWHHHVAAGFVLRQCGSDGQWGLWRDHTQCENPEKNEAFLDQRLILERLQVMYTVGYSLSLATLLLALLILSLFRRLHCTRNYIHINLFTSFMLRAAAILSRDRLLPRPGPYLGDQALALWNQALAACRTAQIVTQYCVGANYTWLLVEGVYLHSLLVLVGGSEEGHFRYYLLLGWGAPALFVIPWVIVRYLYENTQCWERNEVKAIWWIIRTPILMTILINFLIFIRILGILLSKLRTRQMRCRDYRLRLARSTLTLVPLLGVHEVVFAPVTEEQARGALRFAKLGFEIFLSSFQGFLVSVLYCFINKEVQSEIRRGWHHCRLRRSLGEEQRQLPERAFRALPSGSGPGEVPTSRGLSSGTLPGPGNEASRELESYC

[3] = target: T3, human glucagon receptor (GcgR) (Homo sapiens, UniProt P47871); conditions: HEK293 cells expressing human GcgR, geometric mean, read-out: hGcgR cAMP Rel EC50 nM (SEM, n)
T3 construct: expressed in transfected cells; host or cells: HEK293
T3 sequence (P47871 26-477): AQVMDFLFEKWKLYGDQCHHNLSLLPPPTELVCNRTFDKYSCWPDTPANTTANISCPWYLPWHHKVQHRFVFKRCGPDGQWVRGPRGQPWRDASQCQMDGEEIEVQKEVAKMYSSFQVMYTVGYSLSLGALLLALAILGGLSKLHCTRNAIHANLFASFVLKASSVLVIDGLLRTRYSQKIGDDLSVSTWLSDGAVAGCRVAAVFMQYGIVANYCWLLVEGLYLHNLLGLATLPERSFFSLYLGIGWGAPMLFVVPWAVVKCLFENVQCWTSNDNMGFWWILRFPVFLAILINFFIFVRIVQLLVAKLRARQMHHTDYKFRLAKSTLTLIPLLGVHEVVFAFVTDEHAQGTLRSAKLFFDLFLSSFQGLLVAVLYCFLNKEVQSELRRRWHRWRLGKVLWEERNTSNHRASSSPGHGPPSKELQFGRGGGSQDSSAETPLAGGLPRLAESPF

| SMILES | EC50 [1] | EC50 [2] | EC50 [3] |
| --- | --- | --- | --- |
| CC[C@H](C)[C@H](NC(=O)[C@H](CO)NC(=O)[C@H](Cc1ccc(O)cc1)NC(=O)[C@H](CC(=O)O)NC(=O)[C@H](CO)NC(=O)[C@@H](NC(=O)[C@H](Cc1ccccc1)NC(=O)[C@@H](NC(=O)CNC(=O)[C@H](CCC(=O)O)NC(=O)C(C)(C)NC(=O)[C@@H](N)Cc1ccc(O)cc1)[C@@H](C)O)[C@@H](C)CC)C(=O)N[C@@H](C)C(=O)N[C@@H](CC(C)C)C(=O)N[C@@H](CC(=O)O)C(=O)N[C@@H](CCCCN)C(=O)N[C@@H](CCCCNC(=O)COCCOCCNC(=O)COCCOCCNC(=O)CC[C@H](NC(=O)CCCCCCCCCCCCCCCCC(=O)O)C(=O)O)C(=O)N[C@@H](Cc1c[nH]cn1)C(=O)N[C@@H](CCC(N)=O)C(=O)NC(C)(C)C(=O)N[C@@H](CC(=O)O)C(=O)N[C@@H](Cc1ccccc1)C(=O)N[C@H](C(=O)N[C@@H](CCC(=O)O)C(=O)N[C@@H](Cc1ccncc1)C(=O)N[C@@H](CC(C)C)C(=O)N[C@@H](CC(C)C)C(=O)N[C@@H](C)C(=O)NCC(=O)NCC(=O)N1CCC[C@H]1C(=O)N[C@@H](CO)C(=O)N[C@@H](CO)C(=O)NCC(=O)N[C@@H](C)C(=O)N1CCC[C@H]1C(=O)N1CCC[C@H]1C(=O)N1CCC[C@H]1C(=O)N[C@@H](CO)C(N)=O)C(C)C [Example 21] (H-Y[Aib]EGTFISDYSIALDKK([AEEA-AEEA-γGlu-C18 diacid])HQ[Aib]DFVE[4Pal]LLAGGPSSGAPPPS-NH2) | > 5000 nM | 0.291 nM | > 5000 nM |
| CC[C@H](C)[C@H](NC(=O)[C@H](CO)NC(=O)[C@H](Cc1ccc(O)cc1)NC(=O)[C@H](CC(=O)O)NC(=O)[C@H](CO)NC(=O)[C@@H](NC(=O)[C@H](Cc1ccccc1)NC(=O)[C@@H](NC(=O)CNC(=O)[C@H](CCC(=O)O)NC(=O)[C@@H](C)NC(=O)[C@@H](N)Cc1ccc(O)cc1)[C@@H](C)O)[C@@H](C)CC)C(=O)N[C@@H](CC(C)C)C(=O)N[C@@H](CC(C)C)C(=O)N[C@@H](CC(=O)O)C(=O)N[C@@H](CCCCN)C(=O)N[C@@H](CCCCNC(=O)COCCOCCNC(=O)COCCOCCNC(=O)CC[C@H](NC(=O)CCCCCCCCCCCCCCCCC(=O)O)C(=O)O)C(=O)N[C@@H](C)C(=O)N[C@@H](CCC(N)=O)C(=O)NC(C)(C)C(=O)N[C@@H](CC(=O)O)C(=O)N[C@@H](Cc1ccccc1)C(=O)N[C@H](C(=O)N[C@@H](CC(N)=O)C(=O)N[C@@H](Cc1c[nH]c2ccccc12)C(=O)N[C@@H](CC(C)C)C(=O)N[C@@H](CC(C)C)C(=O)N[C@@H](C)C(=O)N[C@@H](CCC(N)=O)C(=O)NCC(=O)N1CCC[C@H]1C(=O)N[C@@H](CO)C(=O)N[C@@H](CO)C(=O)NCC(=O)N[C@@H](C)C(=O)N1CCC[C@H]1C(=O)N1CCC[C@H]1C(=O)N1CCC[C@H]1C(=O)N[C@@H](CO)C(N)=O)C(C)C [Example 2] | > 5000 nM | 0.0123 nM | 608 nM |
| CC[C@H](C)[C@H](NC(=O)[C@H](CCCN)NC(=O)[C@H](CC(=O)O)NC(=O)[C@H](CC(C)C)NC(=O)[C@](C)(CC(C)C)NC(=O)[C@@H](NC(=O)[C@H](CO)NC(=O)[C@H](Cc1ccc(O)cc1)NC(=O)[C@H](CC(=O)O)NC(=O)[C@H](CO)NC(=O)[C@@H](NC(=O)[C@H](Cc1ccccc1)NC(=O)[C@@H](NC(=O)CNC(=O)[C@H](CCC(=O)O)NC(=O)C(C)(C)NC(=O)[C@@H](N)Cc1ccc(O)cc1)[C@@H](C)O)[C@@H](C)CC)[C@@H](C)CC)C(=O)N[C@@H](CCCNC(=N)N)C(=O)N[C@@H](CCC(N)=O)C(=O)NC(C)(C)C(=O)N[C@@H](CC(=O)O)C(=O)N[C@@H](Cc1ccccc1)C(=O)N[C@H](C(=O)N[C@@H](CCC(=O)O)C(=O)N[C@@H](Cc1ccc(O)cc1)C(=O)N[C@@H](CCCCNC(=O)COCCOCCNC(=O)COCCOCCNC(=O)CC[C@H](NC(=O)CCCCCCCCCCCCCCCCCCC(=O)O)C(=O)O)C(=O)N[C@@H](CC(C)C)C(=O)N[C@@H](CCC(=O)O)C(=O)NCC(=O)NCC(=O)N1CCC[C@H]1C(=O)N[C@@H](CO)C(=O)N[C@@H](CO)C(=O)NCC(=O)N[C@@H](C)C(=O)N1CCC[C@H]1C(=O)N1CCC[C@H]1C(=O)N1CCC[C@H]1C(=O)N[C@@H](CO)C(N)=O)C(C)C [Example 116] (H-Y[Aib]EGTFISDYSI[αMeL]LD[Orn]IRQ[Aib]DFVEYK([AEEA-AEEA-γGlu-C20 diacid])LEGGPSSGAPPPS-NH2) | > 5000 nM | 0.028 nM | > 5000 nM |
| CC[C@H](C)[C@H](NC(=O)[C@H](CCCCN)NC(=O)[C@H](CC(=O)O)NC(=O)[C@H](CC(C)C)NC(=O)[C@H](CC(C)C)NC(=O)[C@@H](NC(=O)[C@H](CO)NC(=O)[C@H](Cc1ccc(O)cc1)NC(=O)[C@H](CC(=O)O)NC(=O)[C@H](CO)NC(=O)[C@@H](NC(=O)[C@H](Cc1ccccc1)NC(=O)[C@@H](NC(=O)CNC(=O)[C@H](CCC(=O)O)NC(=O)[C@@H](C)NC(=O)[C@@H](N)Cc1ccc(O)cc1)[C@@H](C)O)[C@@H](C)CC)[C@@H](C)CC)C(=O)N[C@@H](C)C(=O)N[C@@H](CCC(N)=O)C(=O)NC(C)(C)C(=O)N[C@@H](CC(=O)O)C(=O)N[C@@H](Cc1ccccc1)C(=O)N[C@H](C(=O)N[C@@H](CC(N)=O)C(=O)N[C@@H](Cc1c[nH]c2ccccc12)C(=O)N[C@@H](CCCCNC(=O)COCCOCCNC(=O)COCCOCCNC(=O)CC[C@H](NC(=O)CCCCCCCCCCCCCCCCC(=O)O)C(=O)O)C(=O)N[C@@H](CC(C)C)C(=O)N[C@@H](C)C(=O)N[C@@H](CCC(N)=O)C(=O)NCC(=O)N1CCC[C@H]1C(=O)N[C@@H](CO)C(=O)N[C@@H](CO)C(=O)NCC(=O)N[C@@H](C)C(=O)N1CCC[C@H]1C(=O)N1CCC[C@H]1C(=O)N1CCC[C@H]1C(=O)N[C@@H](CO)C(N)=O)C(C)C [Example 93] (H-Y[dA]EGTFISDYSILLDKIAQ[Aib]DFVNWK([AEEA-AEEA-γGlu-C18 diacid])LAQGPSSGAPPPS-NH2) | 884 nM | 0.00482 nM | > 5000 nM |
| CC[C@H](C)[C@H](NC(=O)[C@H](Cc1ccccc1)NC(=O)[C@@H](NC(=O)CNC(=O)[C@H](CCC(=O)O)NC(=O)C(C)(C)NC(=O)[C@@H](N)Cc1ccc(O)cc1)[C@@H](C)O)C(=O)N[C@@H](CO)C(=O)N[C@@H](CC(=O)O)C(=O)N[C@@H](Cc1ccc(O)cc1)C(=O)N[C@@H](CO)C(=O)N[C@H](C(=O)N[C@@](C)(CC(C)C)C(=O)N[C@@H](CC(C)C)C(=O)N[C@@H](CC(=O)O)C(=O)N[C@@H](CCCCN)C(=O)N[C@@H](CCCCNC(=O)COCCOCCNC(=O)COCCOCCNC(=O)CC[C@H](NC(=O)CCCCCCCCCCCCCCCCCCC(=O)O)C(=O)O)C(=O)N[C@@H](Cc1c[nH]cn1)C(=O)N[C@@H](CCC(N)=O)C(=O)NC(C)(C)C(=O)N[C@@H](CC(=O)O)C(=O)N[C@@H](Cc1ccccc1)C(=O)N[C@H](C(=O)N[C@@H](CCC(=O)O)C(=O)N[C@@H](Cc1ccncc1)C(=O)N[C@@H](CC(C)C)C(=O)N[C@@H](CC(C)C)C(=O)N[C@@H](C)C(=O)N[C@@H](C)C(=O)NCC(=O)N1CCC[C@H]1C(=O)N[C@@H](CO)C(=O)N[C@@H](CO)C(=O)NCC(=O)N[C@@H](C)C(=O)N1CCC[C@H]1C(=O)N1CCC[C@H]1C(=O)N1CCC[C@H]1C(=O)N[C@@H](CO)C(N)=O)C(C)C)[C@@H](C)CC [Example 78] | > 5000 nM | 0.0125 nM | 3000 nM |
| CC[C@H](C)[C@H](NC(=O)[C@H](CC(C)C)NC(=O)[C@@H](NC(=O)CNC(=O)[C@H](CCC(=O)O)NC(=O)C(C)(C)NC(=O)[C@@H](N)Cc1ccc(O)cc1)[C@@H](C)O)C(=O)N[C@@H](CO)C(=O)N[C@@H](CC(=O)O)C(=O)N[C@@H](Cc1ccc(O)cc1)C(=O)N[C@@H](CO)C(=O)N[C@H](C(=O)N[C@@](C)(CC(C)C)C(=O)N[C@@H](CC(C)C)C(=O)N[C@@H](CC(=O)O)C(=O)N[C@@H](CCCCN)C(=O)N[C@@H](CCCCNC(=O)COCCOCCNC(=O)COCCOCCNC(=O)CC[C@H](NC(=O)CCCCCCCCCCCCCCCCCCC(=O)O)C(=O)O)C(=O)N[C@@H](Cc1c[nH]cn1)C(=O)N[C@@H](CCC(N)=O)C(=O)NC(C)(C)C(=O)N[C@@H](CCC(=O)O)C(=O)N[C@@H](Cc1ccccc1)C(=O)N[C@H](C(=O)N[C@@H](CCC(=O)O)C(=O)N[C@@H](Cc1ccc(O)cc1)C(=O)N[C@@H](CC(C)C)C(=O)N[C@@H](CC(C)C)C(=O)N[C@@H](CCC(=O)O)C(=O)NCC(=O)NCC(=O)N1CCC[C@H]1C(=O)N[C@@H](CO)C(=O)N[C@@H](CO)C(=O)NCC(=O)N[C@@H](C)C(=O)N1CCC[C@H]1C(=O)N1CCC[C@H]1C(=O)N1CCC[C@H]1C(=O)N[C@@H](CO)C(N)=O)C(C)C)[C@@H](C)CC [Example 73] (H-Y[Aib]EGTLISDYSI[αMeL]LDKK([AEEA-AEEA-γGlu-C20 diacid])HQ[Aib]EFVEYLLEGGPSSGAPPPS-NH2) | > 5000 nM | 0.0151 nM | > 5000 nM |
